According to paper PMC6627609, “Targeting Quorum Sensing: High-Throughput Screening to Identify Novel LsrK Inhibitors” (International Journal of Molecular Sciences, 2019):
Like-named read-outs stand apart in the source and are kept apart here.

Assays:
[1] = biological target: T1, His-LsrK (Salmonella typhimurium, UniProt Q8ZKQ6); assay: Thermal shift assay; assay type: binding, S. typhimurium; conditions: mean ± 95% CI
Procedure: Compounds were added to qPCR plates by Echo acoustic dispenser with a DMSO backfill to maintain a constant final concentration of DMSO in each well (the assay is tolerant up to 8% DMSO with no effect on Tm of LsrK). LsrK protein was added at a concentration of 1 µg per well in a volume of 10 µL with 1× Thermo thermal shift dye or 5× Sypro Orange dye (used for aurin tricarboxylic acid as this compound fluoresces with Thermo dye in 25 mM TEA, 200 µM MgCl2, pH 7.1). Appropriate DMSO-only negative controls and 1 mM ATP/DMSO positive controls were included in each test occasion. Using an Applied Biosystems Quant Studio 5 qPCR machine (Thermo Fisher Scientific, Waltham, MA, USA) the following thermal shift protocol was used: step 1—hold at 25 °C for 1 min; step 2—heat at 0.05 °C/s dissociation then hold at 99 °C for 1 min. Filter setting for Thermo dye: Ex/Em 580/623 nm and for Sypro Orange dye: Ex/Em 470/520 nm.

[2] = biological target: LsrK (Salmonella typhimurium, UniProt Q8ZKQ6); assay: biochemical; assay type: biochemical, S. typhimurium; conditions: for Inhibition (%): 50 µM
Sequence of LsrK (Q8ZKQ6 whole entry): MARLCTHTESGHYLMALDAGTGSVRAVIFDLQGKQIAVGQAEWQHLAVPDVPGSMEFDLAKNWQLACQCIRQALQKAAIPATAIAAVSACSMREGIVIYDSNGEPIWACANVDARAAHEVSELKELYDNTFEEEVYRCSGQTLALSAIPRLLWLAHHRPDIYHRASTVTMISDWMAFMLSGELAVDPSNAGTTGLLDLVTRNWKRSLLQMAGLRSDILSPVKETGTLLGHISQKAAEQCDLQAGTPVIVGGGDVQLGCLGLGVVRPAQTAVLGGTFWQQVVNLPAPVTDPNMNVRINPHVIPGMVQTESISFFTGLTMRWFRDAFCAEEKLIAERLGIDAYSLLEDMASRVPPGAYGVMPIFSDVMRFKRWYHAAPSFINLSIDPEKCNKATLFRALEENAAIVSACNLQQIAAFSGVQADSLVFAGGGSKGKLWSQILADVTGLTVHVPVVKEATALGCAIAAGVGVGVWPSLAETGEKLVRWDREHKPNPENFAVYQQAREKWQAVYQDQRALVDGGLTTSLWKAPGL

[3] = test system: mouse; conditions: ref MicroSource annotations, cited from earlier work
[4] = test system: His-tagged control peptide or SDS denatured His-LsrK; assay: MST assay, specificity controls; assay type: binding
[5] = test system: E. coli LW7 pLW11; assay: AI-2 QS interference assay; assay type: cell-based; conditions: in the presence of PAβN
[6] = biological target: T1, His-LsrK; assay: MST assay; assay type: binding, S. typhimurium; conditions: 95% CI
[7] = test system: rat; conditions: cited from earlier work
[8] = ip, ref MicroSource annotations
[9] = po, ref MicroSource annotations

T1 sequence (Q8ZKQ6 whole entry): as above

Row | Molecule | inhibition at 50 µM [2] | Inhibition (%) [2] | further results
1 | CCCCCCCCCCCCCCCCC(C(=O)O)C(O)(CC(=O)O)C(=O)O (stereo not drawn) [AGARIC ACID] | 157% |  | shift in the Tm of His-LsrK ([1]; 10 µM): −4.7 ± 0.70 °C; IC50 [2]: 7 µM
2 | CN[C@@H]1[C@@H](O[C@H]2O[C@H](CO)[C@@H](N)[C@H](O)[C@H]2O)OC2C[C@@H](N)[C@@H](O[C@H]3[C@H](O)[C@@H](O)[C@H](N)C[C@@H]3N)OC2[C@@H]1O (stereo partly drawn) [APRAMYCIN] | 3% |  | LD50 ([3]; iv): 280 mg/kg
3 | O=C(O)C1=CC(=C(c2ccc(O)c(C(=O)O)c2)c2ccc(O)c(C(=O)O)c2)C=CC1=O [AURIN TRICARBOXYLIC ACID] | 96% |  | binding in MST to control peptide or SDS denatured His-LsrK [4]: no binding; shift in the Tm of His-LsrK ([1]; 20 µM): −0.85 ± 0.38 °C; inhibition of AI-2 mediated QS ([5]; 10 µM): No significant activity; inhibition of AI-2 mediated QS ([5]; 50 µM): No significant activity; Kd [6]: 0.408 ± 0.0699 µM; IC50 [2]: 1 µM
4 | C[C@@H]1CC[C@@]2(OC1)O[C@H]1C[C@H]3[C@@H]4CC=C5C[C@@H](O)CC[C@]5(C)[C@H]4CC[C@]3(C)[C@H]1[C@@H]2C [DIOSGENIN] | 0% |  | LD50 [7, 8]: 4872 mg/kg; LD50 ([3]; po): > 8000 mg/kg
5 | C=C1CC[C@H](O)C/C1=C/C=C1\CCC[C@]2(C)[C@@H]([C@H](C)/C=C/[C@H](C)C(C)C)CC[C@@H]12 [ERGOCALCIFEROL] | 56% |  | LD50 ([7]; in vivo, po): 56 mg/kg
6 | CC(C)=CCC[C@]1(C)C=Cc2c(O)c3c(c(CC=C(C)C)c2O1)O[C@]12C(=C[C@@H]4C[C@H]1C(C)(C)O[C@@]2(C/C=C(/C)C(=O)O)C4=O)C3=O [GAMBOGIC ACID] | 89% |  | LD50 [7, 8]: 88 mg/kg
7 | C[C@H](CCC(=O)O)[C@H]1CC[C@H]2[C@@H]3CC[C@@H]4C[C@H](O)CC[C@]4(C)[C@H]3CC[C@]12C [LITHOCHOLIC ACID] | 2% |  | LD50 ([3]; po): 3900 mg/kg
8 | CC[C@@H](C)C(=O)O[C@H]1[C@H](O)[C@H]2[C@@H](CN3C[C@@H](C)CC[C@H]3[C@@]2(C)O)[C@@H]2C[C@]34O[C@]5(O)[C@@H](OC(=O)[C@@](C)(O)CC)CC[C@@]3(C)[C@@H]5[C@@H](OC(C)=O)[C@@H](OC(C)=O)[C@H]4[C@@]21O [PROT[…]] | 1% |  | LD50 [7, 9]: 5 mg/kg
9 | CC(C)[C@@H]1NC(=O)[C@H](C)OC(=O)[C@@H](C(C)C)NC(=O)[C@@H](C(C)C)OC(=O)[C@H](C(C)C)NC(=O)[C@H](C)OC(=O)[C@@H](C(C)C)NC(=O)[C@@H](C(C)C)OC(=O)[C@H](C(C)C)NC(=O)[C@H](C)OC(=O)[C@@H](C(C)C)NC(=O)[C@@H](C(C)C)OC1=O [VALINOMYCIN] | 1% |  | LD50 [7, 9]: 4 mg/kg
10 | O.O=C(O)[C@@H]1[C@H]2C[C@H]3c4[nH]c5ccccc5c4CCN3C[C@@H]2CC[C@@H]1O [YOHIMBIC ACID HYDRATE] |  | 1 | 
11 | Cc1cn([C@H]2C[C@H](N=[N+]=[N-])[C@@H](CO)O2)c(=O)[nH]c1=O [ZIDOVUDINE [AZT], ZIDOVUDINE] | 36% |  | 
12 | C=CCCCCCCCCC(=O)[O-].C=CCCCCCCCCC(=O)[O-].[Zn+2] [ZINC UNDECYLENATE] |  | 21 | 
13 | CC(C)/C(O)=C1/C(=O)O[C@@H](c2ccoc2)[C@]2(C)C(O)[C@@H](O)[C@@]34OC5(C)OC67CC(C)(C(O)[C@]6(O)[C@@H](O)[C@]3(O5)C12)[C@H](CC(=O)O)[C@]74C (stereo partly drawn) [[…] OF BUSSEIN] | 1% |  | 
14 | CC(C)=CCCC1(C)C=Cc2c(O)c3c(c(CC=C(C)C)c2O1)OC12C(=CCCC1C(C)(C)O[C@@]2(C/C=C(\C)C(=O)O)C(=O)O)C3=O (stereo partly drawn) [[…]] | 75% |  | 
15 | CC(C)NNC(=O)c1ccncc1 [[…]] | 0% |  | 
16 | CCCCCC(=O)Cc1cc(O)cc(O)c1C(=O)Oc1cc(CC(=O)CCCCC)c(C(=O)O)c(OC)c1 [[…]] | 0% |  | 
17 | COC(=O)CC1C(C)(C)C(OC(C)=O)[C@@H]2[C@@H](OC(C)=O)[C@]34O[C@@]2(O)[C@]1(C)C3CC[C@]1(C)C4=CC(=O)O[C@H]1c1ccoc1 (stereo partly drawn) [[…]] | 2% |  | 
18 | COc1cc(-c2coc3cc(O)c(OC)c(O)c3c2=O)cc(O)c1OC [[…]] | 5% |  | 
19 | Cc1cc(O)c(C=O)c2c1C(=O)Oc1c(C)c(O)c3c(c1O2)C(O)OC3=O (stereo not drawn) [[…]] | 145% |  | 
20 | O=C(/C=C/C(=O)Oc1ccccc1C(=O)O)Oc1ccccc1C(=O)O [[…]] | 2% |  | 
21 | N#C/C(=C\c1cccc(O)c1)C(=O)O [alpha-CYANO-3-HYDROXYCINNAMIC ACID] | 2% |  | 
22 | N#C/C(=C\c1ccc(O)cc1)C(=O)O [alpha-CYANO-4-HYDROXYCINNAMIC ACID] | 1% |  | 
23 | CC(=O)O[C@@H]1CC2C(C)(C)[C@H](O)CC[C@]2(C)C2CC[C@@]3(C)[C@H](c4ccoc4)OC(=O)C4OC43[C@@]21C (stereo partly drawn) [alpha-DIHYDROGEDUNOL] |  | 1 | 
24 | COc1cc2c(cc1OC)[C@@H]1C(=O)c3c(O)cc4c(c3O[C@@H]1CO2)C=CC(C)(C)O4 [alpha-TOXICAROL] |  | 10 | 

Row | Molecule | inhibition at 50 µM [2] | Inhibition (%) [2] | further results
25 | CC1=C(/C=C/C(C)=C/C=C/C(C)=C/C=C/C=C(C)/C=C/C=C(C)/C=C/C2=C(C)CCCC2(C)C)C(C)(C)CCC1 [beta-CAROTENE] | 1% |  | 
26 | C/C=C(\C)C(=O)O[C@H]1[C@H](OC(C)=O)[C@@]2(CO)C(CC1(C)C)C1=CC[C@@H]3[C@@]4(C)CC[C@H](O[C@@H]5O[C@H](C(=O)O)[C@@H](O[C@@H]6O[C@H](CO)[C@@H](O)[C@H](O)[C@H]6O)[C@H](O)[C@H]5O[C@@H]5O[C@H](CO)[C@@H](O)[C@H](O)[C@H]5O)[C@H](CO)C4CC[C@@]3(C)[C@@]1(C)C[C@H]2O (stereo partly drawn) [beta-ESCIN] | 129% |  | 
27 | NC(C(=O)O)C(O)C(=O)O (stereo not drawn) [d.l-threo-3-HYDROXYASPARTIC ACID] |  | 3 | 
28 | CC(=O)Oc1cccc(C)c1 [meta-CRESYL ACETATE] |  | 1 | 
29 | AGELASINE |  | 102 | 
30 | ASARININ (-) |  | 1 | 
31 | BACITRACIN |  | 5 | 
32 | BENZALKONIUM CHLORIDE |  | 121 | 
33 | BERBAMINE HYDROCHLORIDE |  | 1 | 
34 | CHLOROPHYLLIDE Cu COMPLEX Na SALT |  | 104 | 
35 | CRESOL |  | 0 | 
36 | GARLICIN |  | 10 | 
37 | GRAMICIDIN |  | 0 | 
38 | HECOGENIN |  | 2 | 
39 | IVERMECTIN |  | 1 | 
40 | KHAYANTHONE |  | 11 | 
41 | MANGANESE TETRAKIS(4-CARBOXYPHENYL)PORPHYRIN CHLORDE |  | 1 | 
42 | MECLOCYCLINE SULFOSALICYLATE |  | 93 | 
43 | METHIONINE SULFOXIMINE (L) |  | 2 | 
44 | NEOMYCIN SULFATE |  | 1 | 
45 | POLYMYXIN B SULFATE |  | 48 | 
46 | TANNIC ACID |  | 94 | 
47 | TEICOPLANIN [TEICOPLANIN [A(2-1) shown]] |  | 148% | 
